System: despinalisierten Meerschweinchen
Test: Determination of the positive inotropic effect in despinalised guinea pigs
Assay type: in vivo
Conditions: 1 mg/kg i.v. (Vena jugularis), mean of 3 despinalised guinea pigs, left ventricular pressure
From the text: Bestimmung der positiv inotropen Wirkung an despinalisierten Meerschweinchen
Die Untersuchungen wurden an despinalisierten Meerschweinchen durchgeführt. Die Tiere wurden mit 50 % 02 + 50 % N2 beatmet. Der arterielle Blutdruck wurde in der rechten Arteria Carotis mit einem Bell and Howell Druckwandler (4-327-I) gemessen. Für die Erfassung der positiv inotropen Wirkung wurde mit einem Kathetertipmanometer (Millar PR-249) der Druck in dem linken Ventrikel (LV) gemessen. Mittels eines Differenzierers wurde LV-dp/dtmax gewonnen. Die zu untersuchenden Substanzen wurden in eine Vena jugularis injiziert. Als Lösungsdmittel diente 0,9 % NaCl+Polydiol 200 (1:1).
Jede Substanz wurde an 3 Meerschweinchen überprüft. Die Dosen waren 0,1 - 3 mg/kg i.v.. Die nachfolgende Tabelle enthält die Mittelwerte bei 1 mg/kg i.v..
Die neuen Verbindungen sind gut verträglich, so konnte bei der Untersuchung der Substanzen A bis D bis zu einer Dosis von 3 mg/kg i.v. keinerlei herztoxische Wirkungen bzw. Kreislaufschäden beobachtet werden.

Row | Structure (SMILES) | Zunahme in LV-dp/dtmax
1 | COc1ncc2[nH]c(-c3ccc4ccccc4c3)nc2n1 [Substanz C, 2-Methoxy-8-(naphth-2-yl)-purin] | 33%
2 | CCCOc1cc2ccccc2cc1-c1nc2cnc(Cl)nc2[nH]1 [Substanz D, 2-Chlor-8-(3-n-propoxy-naphth-2-yl)-purin] | 27%
3 | O=c1ccc2[nH]c(-c3cc4ccccc4cc3Cl)nc2[nH]1 [Substanz B, 2-(3-Chlor-naphth-2-yl)-lH-imidazo[4,5-b]pyridin-5-on] | 30%
4 | O=c1[nH][nH]cc2nc(-c3ccc4ccccc4c3)nc1-2 [Substanz A, 2-(Naphth-2-yl)-5H-imidazo[4,5-d]pyridazin-4-on] | 28%
